Activity calls are given as the source filed them. The rule behind the calls is not given here.
Columns and labels:
[1] = test system: Acinetobacter baumannii; test: Inhibition of Acinetobacter baumannii AB5711 biofilm formation at 200 uM after 24 hrs by crystal violet staining-based static MBEC biofilm assay; type: functional, organism-based
[2] = test system: Acinetobacter baumannii; test: Inhibition of Acinetobacter baumannii AB5711 biofilm formation assessed as inhibition of cell adherence to surface at 100 uM by crystal violet staining-based modified microtiter biofilm assay; type: functional, organism-based
[3] = test system: RAW264.7; test: Cytotoxicity against mouse RAW264.7 cells assessed as reduction in cell viability at >200 uM after 24 hrs by trypan blue-staining based microscopic analysis; settings: raw264.7, 24 h
[4] = test system: Acinetobacter baumannii; test: Inhibition of Acinetobacter baumannii AB5711 biofilm formation in 14-French silicone urethral catheter at 200 uM measured after overnight incubation by crystal violet staining-based spectrophotometry; type: functional, organism-based
[5] = test system: Acinetobacter baumannii; test: Inhibition of Acinetobacter baumannii AB5711 biofilm formation at 100 uM after 24 hrs by crystal violet staining-based static MBEC biofilm assay; type: functional, organism-based

| Structure (SMILES) | inhibition [1] | inhibition [2] | Activity [3] | inhibition [4] | inhibition [5] |
| --- | --- | --- | --- | --- | --- |
| NNC(=O)c1cc(O)c(O)c(O)c1 | Active | Active | Toxic | Active | inactive |
| COc1ccccc1C(=O)NNC(=O)c1cc(OC)c(OC)c(OC)c1 | Active | Active | Toxic | inactive | inactive |
| COc1cc(C(=O)NNC(=O)c2ccc(S(=O)(=O)C3CCC(C)CC3)cc2)cc(OC)c1OC (stereo not given) | Active | Active | Toxic | inactive | inactive |
| COc1cc(C(=O)NNC(=S)NC(C)(C)C)cc(OC)c1OC | Active | Active | Toxic | Active | inactive |
| COc1cc(C(=O)NNC(=O)c2cccc(Cl)c2)cc(OC)c1OC | Active | Active | Toxic | Active | inactive |
| CCNC(=S)NNC(=O)c1cc(OC)c(OC)c(OC)c1 | Active | Active | Toxic | Active | inactive |
| COc1cc(C(=O)NN2c3ccccc3C(C)(C)C(C)(C)c3ccccc32)cc(OC)c1OC | Active | Active | Toxic | Active | inactive |
| COc1cc(C(=O)N2N=C(C3CC3)CC2(O)C(F)(F)F)cc(OC)c1OC (stereo not given) | Active | Active | Toxic | Active | inactive |

Source: ChEMBL document CHEMBL3400087, “Modulating Acinetobacter baumannii biofilm development with molecules containing 3,4,5-trimethoxy-N,N',N'-trimethylbenzohydrazide moiety” (Bioorg Med Chem Lett, 2015)
